Legend:
Assay in all cases: Drug sensitivity of clinical isolated strain
[1] = tested on: KP-1: Klebsiella pneumonia subsp. pneumonia 13#; assay type: cell-based; details: KP-1 (Table 3)
[2] = tested on: KP-2: K. pneumonia subsp. pneumonia 0322#; assay type: cell-based, Klebsiella pneumonia
[3] = tested on: AB-1: Acinetobacter baumannii H#; assay type: cell-based
AB-2: A. baumannii 0361# = assay type: cell-based, Acinetobacter baumannii; details: AB-2 (Table 3)
[4] = tested on: PA-1: Pseudomonas aeruginose 1298#; assay type: cell-based, Pseudomonas aeruginosa
[5] = tested on: PA-2: P. aeruginose 0009#; assay type: cell-based, Pseudomonas aeruginosa; details: PA-2 (Table 3)
[6] = tested on: ECL-1: Enterobacter cloacae 0431#; assay type: cell-based; details: ECL-1 (Table 3)
ECL-2: E. cloacae 2301# = assay type: cell-based, Enterobacter cloacae
[7] = tested on: ECO-1: Escherichia coli 1139#; assay type: cell-based
ECO-2: E. coli 2219# = assay type: cell-based, Escherichia coli; details: ECO-2 (Table 3)
ECO-3: E. coli ZY-1 = assay type: cell-based, Escherichia coli
Also: key: R: resistant; S: sensitive.

| Compound | Drug sensitivity [1] | Drug sensitivity ([2]; KP-2 (Table 3)) | Drug sensitivity ([2]; KP-2 (table of Example 3)) | Drug sensitivity ([3]; AB-1 (Table 3)) | Drug sensitivity ([3]; AB-1 (table of Example 3)) | Drug sensitivity (AB-2: A. baumannii 0361#) | Drug sensitivity ([4]; PA-1 (Table 3)) | Drug sensitivity ([4]; PA-1 (table of Example 3)) | Drug sensitivity [5] | Drug sensitivity [6] | Drug sensitivity (ECL-2: E. cloacae 2301#; ECL-2 (Table 3)) | Drug sensitivity (ECL-2: E. cloacae 2301#; ECL-2 (table of Example 3)) | Drug sensitivity ([7]; ECO-1 (Table 3)) | Drug sensitivity ([7]; ECO-1 (table of Example 3)) | Drug sensitivity (ECO-2: E. coli 2219#) | Drug sensitivity (ECO-3: E. coli ZY-1; E. coli ZY-1 (Table 7)) | Drug sensitivity (ECO-3: E. coli ZY-1; ECO-3 (Table 3)) |
| --- | --- | --- | --- | --- | --- | --- | --- | --- | --- | --- | --- | --- | --- | --- | --- | --- | --- |
| CC(C)(O/N=C(\C(=O)N[C@@H]1C(=O)N2C(C(=O)[O-])=C(C[n+]3ccccc3)CS[C@H]12)c1csc(N)n1)C(=O)O [Ceftazidime] | R | R | R | R | R | R | R | R | R | R | R | R | R/S | R/S | R | S | S |
| C[C@@H](O)[C@H]1C(=O)N2C(C(=O)O)=C(S[C@@H]3CN[C@H](C(=O)N(C)C)C3)[C@H](C)[C@H]12 [Meropenem] | R | S | S | R | R | R | R | R | R/S | S | R | R | S | S | S | S | S |
| CC1(C)S[C@@H]2[C@H](NC(=O)[C@H](N)c3ccccc3)C(=O)N2[C@H]1C(=O)O [Ampicillin] | R | R | R | R | R | R | R/S | R/S | R |  |  |  | S | S | R | S | S |
| CC1(C)[C@H](C(=O)O)N2C(=O)C[C@H]2S1(=O)=O [Sulbactam] | R | R | R | R | R |  |  |  |  |  |  |  | R/S | R/S | R | S | S |
| Nc1ccc(S(N)(=O)=O)cc1 [Sulfanilamide] |  |  |  |  |  | S | R | R | R | R | R | R | R | R | R | R | R |
| O=C(N[C@H](CO)[C@H](O)c1ccc([N+](=O)[O-])cc1)C(Cl)Cl [Chloramphenicol] | R | R | R | R | R | R |  |  | R | R | R | R | S | S | S | S | S |
| NCC[C@H](O)C(=O)N[C@@H]1C[C@H](N)[C@@H](O[C@H]2O[C@H](CN)[C@@H](O)[C@H](O)[C@H]2O)[C@H](O)[C@H]1O[C@H]1O[C@H](CO)[C@@H](O)[C@H](N)[C@H]1O [Amikacin] | R | S | S | R | R | R | S | S | R | S | S | S | S | S | S | S | S |
| CCN1CCN(C(=O)N[C@@H](C(=O)N[C@@H]2C(=O)N3[C@@H]2SC(C)(C)[C@@H]3C(=O)O)c2ccccc2)C(=O)C1=O [Piperacillin] | R | R | R | R | R | R | R/S | R/S | R | R | R | R | R | R | R | S | S |
| C[C@@H](O)[C@H]1C(=O)N2C(C(=O)O)=C(SCCN=CN)C[C@H]12 [Imipenem] | R | S | S | R | R | R | S | S |  | S | R | R | S | S | S | S | S |
| C[C@H]1[C@H](NC(=O)/C(=N\OC(C)(C)C(=O)O)c2csc(N)n2)C(=O)N1S(=O)(=O)O [Aztreonam] |  |  |  | R | R | R | R | R | R | R | R | R | R | R | R | S | S |
| Cc1nnc(SCC2=C(C(=O)O)N3C(=O)[C@@H](NC(=O)Cn4cnnn4)[C@H]3SC2)s1 [Cefazolin] | R | R | R | R | R | R | R | R | R |  |  |  | R | R | R | S | S |
| C[C@H]1COc2c(N3CCN(C)CC3)c(F)cc3c(=O)c(C(=O)O)cn1c23 [Levofloxacin] | R | R | R | R | R | R | R | R | R | R | R | R | R | R | R | S |  |
| C[C@]1(Cn2ccnn2)[C@H](C(=O)O)N2C(=O)C[C@H]2S1(=O)=O [Tazobactam] | R | R | R | R | R | R | R/S | R/S | R | S | R | R | S | S | R/S | S | S |
| Polymyxin |  |  |  | S | S | S | S | S | S | R | S | S |  |  |  |  |  |
| CO/N=C(\C(=O)N[C@@H]1C(=O)N2C(C(=O)[O-])=C(C[N+]3(C)CCCC3)CS[C@H]12)c1csc(N)n1 [Cefepime] | R | R | R | R | R | R | R | R | R | R | R | R | R | R | R | S | S |
